Columns and labels:
[1] = parameters: method as in PMID 15866491; settings: healthy humans, i.v. dosing of a Danshen product; cited from earlier work
mOat1 = molecular target: T1, mOat1 (Mus musculus, UniProt Q8VC69); assay: Inhibition of mOat1-mediated [3H]PAH uptake in CHO-mOat1 cells (cell accumulation assay); type: cell-based, murine; settings: for Estimated α value from mixed inhibition model analysis, mOat1: 5 μM PAH for 2 min, mean, α > 1 indicates competitive inhibition; for Ki / inhibition at 1000 µM: 5 μM [3H]PAH; for Ki: 2 min, CHO-mOat1, mean ± S.E.M. (n = 3), from IC50 via Cheng-Prusoff, read-out: Estimated K i for mOat1-mediated transport; for inhibition at 1000 µM: 1 mM (1000 μM) inhibitor, 10 min, CHO-mOat1 cells, read-out: inhibition of mOat1-mediated PAH uptake; for mode of inhibition of mOat1-mediated transport: mixed inhibition model, PAH substrate; for K i ratio (mOat1/mOat3): ratio of Ki on mOat1 to Ki on mOat3
T1 construct: expressed in transfected cells; host or cells: CHO (Chinese hamster ovary), stably transfected (CHO-mOat1)
T1 sequence (Q8VC69 1-545): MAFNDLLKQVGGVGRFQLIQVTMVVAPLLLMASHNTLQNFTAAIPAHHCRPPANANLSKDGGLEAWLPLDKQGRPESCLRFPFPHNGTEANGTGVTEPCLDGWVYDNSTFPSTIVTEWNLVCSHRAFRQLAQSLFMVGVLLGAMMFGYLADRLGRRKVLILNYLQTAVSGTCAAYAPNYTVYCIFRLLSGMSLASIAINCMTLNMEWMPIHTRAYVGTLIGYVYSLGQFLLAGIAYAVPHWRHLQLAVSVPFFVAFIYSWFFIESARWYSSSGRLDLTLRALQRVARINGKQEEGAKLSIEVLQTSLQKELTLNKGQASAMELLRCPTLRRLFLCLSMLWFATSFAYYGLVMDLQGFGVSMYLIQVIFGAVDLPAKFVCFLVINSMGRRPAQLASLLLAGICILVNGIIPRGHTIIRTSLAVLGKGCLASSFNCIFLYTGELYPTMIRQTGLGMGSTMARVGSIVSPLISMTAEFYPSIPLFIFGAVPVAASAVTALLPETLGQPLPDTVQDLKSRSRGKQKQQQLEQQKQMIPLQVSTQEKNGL
Procedure: Derivation of the stably transfected Chinese hamster ovary (CHO) cell lines expressing mOat1 (CHO-mOat1), mOat3 (CHO-mOat3), and the empty vector (FRT) transfected control cell line (CHO-FRT) was described previously.
Cell transport assay procedures were adapted from those previously published. In brief, 2 × 10^5 cells/well were seeded in 24-well tissue culture plates and grown in the absence of antibiotics for 48 hr. On the day of the experiment, cells were equilibrated with transport buffer for 10 min (500 μL of Hanks' balanced salt solution containing 10 mM HEPES, pH 7.4). […] After incubation, cells were immediately rinsed three times with ice-cold transport buffer, lysed, and analyzed via liquid scintillation counting. Uptake values were normalized to corresponding total protein content in cell lysates as determined by the Bradford method. Substrate accumulation is reported as picomoles of substrate per milligram protein. […] Kinetic calculations were performed using GraphPad Prism Software version 5.0 (GraphPad Software Inc., San Diego, CA, USA). Michaelis constant (K m) values were calculated by nonlinear regression using the Michaelis-Menten model. […] In this study, three curves were constructed (no inhibitor, plus two selected inhibitor concentrations) with uptake of substrate plotted as a function of its concentration for each condition. […] The parameter, α, can then be used to determine the mode of inhibition. When α is very large (α > 1), it indicates competitive inhibition. […] Results were confirmed by repeating all experiments at least three times with triplicate wells for each data point in every experiment.
Figure 3 Michaelis-Menten kinetics of PAH transport in CHO-mOat1 cells. In order to calculate K i values for mOat1, the K m value for PAH needed to be determined in the CHO-mOat1 cell system. […] The corrected curve (closed circles) was obtained by subtracting the nonspecific background uptake as measured in the CHO-FRT cells from CHO-mOat1 accumulation to allow analysis of mOat1-mediated activity. Experiments were repeated three times in triplicate, and Michaelis constant (K m) values were calculated by nonlinear regression using the Michaelis-Menten model. […] Graph shown is from a representative experiment with values plotted as mean ± S.D. (n = 3).
Figure 2 Inhibition profile of mOat1 and mOat3. […] (b) Inhibition of mOat3-mediated uptake of [^3H]ES (1 μM) by LSA, PCA, RMA, SAA, SAB, TSL, and probenecid (1000 μM) was measured in the CHO-mOat3 cells (10 min). […] Values are mean ± S.D. of triplicate values. ***denotes P < 0.001 as determined by one-way ANOVA followed by Dunnett's t-test.
Figure 4 K i determination for LSA, RMA, and SAA in the CHO-mOat1 cell line. […] (5 μM) in CHO-mOat1 cells was measured in the presence of increasing concentrations (10^−7 to 5 × 10^−4 M) of LSA, RMA, and SAA. Data were corrected for nonspecific background measured in the CHO-FRT cells prior to kinetic analysis. K i values were determined with non-linear regression and the “one-site competition” model using GraphPad Prism software. Graphs shown are from representative experiments with values plotted as mean ± S.D. (n = 3).

[2] = rats, cited from earlier work
[3] = rat plasma; cited from earlier work

Estimated α value from mixed inhibition model analysis, mOat1 (mOat1)	Ki (mOat1) [µM]	inhibition at 1000 µM (mOat1) [%]	mode of inhibition of mOat1-mediated transport (mOat1)	K i ratio (mOat1/mOat3) (mOat1)	SMILES	Cmax [1] [µM]	increase of AUC on spiking additional SAA into Danshen preparations [2] [%]	reduction of clearance on spiking additional SAA into Danshen preparations [2] [%]	unbound renal clearance relative to glomerular filtration rate ([2]; fold greater than the glomerular filtration rate)	plasma protein binding [3] [%]
6.7 × 10^11	14.9 ± 4.9	70 to 85	competitive	0.48	O=C(/C=C/c1ccc(O)c2c1[C@H](C(=O)O)[C@@H](c1ccc(O)c(O)c1)O2)O[C@H](Cc1ccc(O)c(O)c1)C(=O)O [LSA, lithospermic acid]	2.1				
1.3 × 10^12	5.5 ± 2.2	> 95	competitive	1.29	O=C(/C=C/c1ccc(O)c(O)c1)O[C@H](Cc1ccc(O)c(O)c1)C(=O)O [RMA, rosmarinic acid]	6.7				
2.6 × 10^14	4.9 ± 2.2	> 95	competitive	0.23	O=C(/C=C/c1ccc(O)c(O)c1/C=C/c1ccc(O)c(O)c1)O[C@H](Cc1ccc(O)c(O)c1)C(=O)O [SAA, salvianolic acid A]					

SMILES	Estimated α value from mixed inhibition model analysis, mOat1 (mOat1)	Ki (mOat1) [µM]	inhibition at 1000 µM (mOat1) [%]	mode of inhibition of mOat1-mediated transport (mOat1)	K i ratio (mOat1/mOat3) (mOat1)	Cmax [1] [µM]	increase of AUC on spiking additional SAA into Danshen preparations [2] [%]	reduction of clearance on spiking additional SAA into Danshen preparations [2] [%]	unbound renal clearance relative to glomerular filtration rate ([2]; fold greater than the glomerular filtration rate)	plasma protein binding [3] [%]
O=C(O)C(O)Cc1ccc(O)c(O)c1 (stereo not shown) [TSL, tanshinol]			70 to 85				26.7	32.9	~ 5 X	25

From paper PMC3403540, “Active Hydrophilic Components of the Medicinal Herb Salvia miltiorrhiza (Danshen) Potently Inhibit Organic Anion Transporters 1 (Slc22a6) and 3 (Slc22a8)” (Evidence-based Complementary and Alternative Medicine : eCAM, 2012)
